The source of these data is patent publication US4753928A, “Process for obtaining sexual products from mammals suitable for natural or artificial fertilization” (INNOFINANCE Altalanos Innovacios Pengintezet, priority 1985, dated 1988).

Several values for one entry are separate records, joined by “and”; a condition that tells them apart may be missing. Identical values can stand only once. Where a SMILES comes first, the peptide text is derived from it. [ ]: non-standard residue; d: D form. pGlu = O=C1CC[C@@H](C(=O)O)N1

The subject of assay [1] is subordinate male chimpanzees. Briefly: Treating physiological oligospermia of chimpanzee. It is filed as in vivo. Here is the method:
In our case, apart from sperm obtained from the dominant males, that was stored in sperm bank, we had to have expressly, for the purpose of insemination, sperm from the 4 subordinate males (all sexually mature). Before the treatment began, all animals were ejaculated under narcosis through electric shock method. Density and motility of the ejaculate was evaluated under microscope, then it was put under deep freeze probe (-196° C.). […] Thereafter male chimpanzees weighing 60 to 90 kilograms were administered intramuscularly 100 μg of D-Phe^6, Gln^8, desGly^10 -GnRH ethylamide diluted in 1 ml of normal saline solution using compressed air injection technique. […] Qualitative and quantitative characteristics of the ejaculates were similar to those obtained from the dominant male and to values published in technical literature.
After diluting the ejaculate in a 1:1 ratio, deep-freeze test was positive and the 60% motility decreased to only 45%. Sperms of this quality either fresh or in deep freeze are entirely suitable for the purposes of insemination.

The next assay concerns Bengalian tiger. Briefly: Stimulating normospermia to hyperspermia in Bengalian tiger. Format: in vivo. The procedure: A 8-year old Bengalian tiger of a weight of 200 kg belonging to Zoo copulated regularly, its mate becoming pregnant regularly for years. With this knowledge, under narcosis and in the mating season sperm sample was taken electrically and it was established that the sample density reached 3, motility was 30% and quantity of ejaculate amounted to 0.2 ml. […] Deep freezing of such minute quantity of ejaculate, however, is for technical reasons not possible. In order to protect the animal and to avoid liver damage, narcosis can be repeated every four days at the most and kept on for 4-5 hours. Collecting of sperms this way is unaccomplishable. In our process the male was separated from the female and was treated daily for 12 days with 10 μg each of D-Phe^6, Gln^8, DesGly^10 -GnRH ethyl-amide which was diluted in 1 ml of normal saline solution and administered intramuscularly, using compressed air injection technique. On the 12th day, through electrical means the animal was ejaculated under narcosis twice with an hour time interval; in this way 1 ml and 0.8 ml of sperms were obtained. The two samples were combined and examined; a density of 4 was established, motility being 70%. Sperm samples were deep frozen and 21 doses suitable for artificial fertilization were prepared.

For another assay, the system named is infant calves. The assay is described as follows: Inducing super-ovulation in infant cattle. It is filed as in vivo. The procedure: 8 65-old day infant calves were treated for 8 days, three times daily, with 2 μg of D-Phe^6, Gln^8, desGly^10 -GnRH ethylamide each. After a day of rest, on the 10th day 100 μg active ingredient was administered each intramuscularly. Following the last injection, ovaries from both sides were removed; generally 5-11 developed Graf-follicles were registered in each ovary. 50% of the follicles were already past the stage when tight to the touch, i.e. they were follicles just prior to ovulation.

The subject of assay [2] is intact ovaries in organ culture. Briefly: Production of ova in cattle in vitro from ovary organ culture. It is filed as cell-based. Conditions: 10^-9 -10^-8 g/ml; spontaneous ovulations and punctured ova. The procedure: Cattle in slaughter-house was stunned and bled, after which intact ovaries were removed within 30-55 minutes. Then in laboratory conditions they were placed in […]. To this culture liquid D-Phe^6, Gln^8, desGly^10 -GnRH ethyl-amide was given in a concentration of 10^-9 -10^-8 g/ml. Ovary stock took 16 to 43 hours to ovulate in organ culture. Out of the spontaneous ovulations of in vitro ovaries and from ova obtained with puncturing 85% were capable to continue meiosis (reductive cell division) and to be successfully fertilized in vitro by tractable sperms of cattle.

For another assay, the system named is female lambs. Briefly: Inducing super-ovulation in infant sheep. It is filed as in vivo. Conditions: 10 μg twice daily 5 days i.m., 70 μg on 6th day; 50-day old lambs. The procedure:
10 50-day old female lambs were administered each intramuscularly twice daily for 5 days 10 μg doses each of D-Phe^6, Gln^8, desGly^10 -GnRH ethylamide. […] Evaluation of treated and untreated control animals was carried out with the aid of laparoscopy. The results were similar to those outlined in Examples 1 to 4.

The next assay has as its system female wild cats. Briefly: Cancelling seasonal unoestrus in adult wild cat. Conditions: after 4 days; i.m. 100 μg then 500 μg two hours later, repeated after 48 hours. It is filed as in vivo, Felis silvestris. Here is the method: 2 female wild cats from Zoo, with an average weight of 6 kg and having under normal conditions a cycle between February and March, were treated with D-Phe^6, Gln^8, desGly^10 -GnRH ethyl-amide. Before treatments began, abdominal cavity was opened under narcosis in order to see the condition of both ovaries. After sewing up the abdomen, animals were treated every second day, four times in total through intramuscular injection of the active ingredient diluted in normal saline solution. A two-hour interal was kept between the first and second injection; the first dose was 100 μg, the second one 500 μg. This was followed after 48 hours by the third dose of 100 μg, then two hours later by the fourth dose of 500 μg. On the 0., 2., 4. and 8th day of the treatment abdomen was opened under narcosis and changes in condition of the ovaries were visually evaluated. After treatment both ovaries were removed, fixed and their hystological evaluation was carried out.
On the 0. day of the treatment on left side ovary of both animals 3-4 supposed secondary follicles and 1 degenerated old corpus luteum, while on the right side ovary 5-6 supposed secondary follicles could be seen. […]

The next assay concerns male orang-utan. Briefly: Treating aspermia caused by non-natural keeping in orang-utan. Conditions: 47th day. It is filed as in vivo. The text has this: A 18-year old, male orang-utan of a weight of ca. […] and belonging to Zoo came into captivity in its infancy. Till the treatment it had three owners. […] It has been living in its present location for the past 11 years, it had neither a companion of his own kind nor a mate. […] The Zoo has been contacted that in case the animal is of Bornean Sub-species and fertile, it would be purchased. […] A factor questioning fertility in the case-history was the absence of aggressiveness typical of the male primates and the ceasing of regular masturbation during hospitalization 5-6 years before. Sperm sample was taken from the animal under narcosis, using electrical means. In the ejaculate secretion of the side gonads was exclusively found, in three parts 1--1 droplet, altogether a quantity of 0.1 ml.
Thereafter the animal was treated twice weekly with a dose of 100 μg D-Phe^6, Gln^8, DesGly^10 -GnRH ethylamide, i.e. similarly to the method used in Example 11. During treatment movement of the animal became more live and active. This, however, could not be attributed to the growth of libido, since it could have been caused by the fear from firing airgun injector. Treatment was finished on the 47th day following the first shot and ejaculate was taken twice under renewed narcosis and one hour interval; in this way altogether 3.2 ml of sperms were obtained. Density of sperm was 3, motility 35%. Amount of degenerated sperms reached 20%, practically made up of entirely young development forms (neck and middle part plasma droplets).

Assay [3] relates to ovary of domestic cat kittens. Briefly: Stimulating function of ovary in domestic cat (D-Phe6,Trp7,Leu8-GnRH). Format: in vivo. Conditions: 100 μg i.m. every second day, three times; 45 days old kittens. The procedure: 5 kittens each weighing 0.3 kg and being 45 days old were treated with D-Phe^6, Trp^7, Leu^8 -GnRH analogue in such a way that prior to treatments the left side ovary was removed under narcosis. Then the […] were treated every second day, three times in all with doses of 100 μg each of the active ingredient diluted in normal saline solution administered intramuscularly. After treatment the remaining right side ovaries were removed, examined visually, then, after fixing, hystological examination was carried out.
Ovaries removed prior to treatment were quite homogeneous, butter-yellow in colour, growing follicle could not be detected in them either visually or hystologically. Following treatment 7-8 corpora haemorrhagica and several (not countable) growing follicles were found.

In a further assay the test system is Siberian tiger male. The assay is described as follows: Treating Siberian tiger infertile owing to degenerated spermatogeny. It is filed as in vivo. An excerpt: A 8-year old Siberian tiger male of 120 kg and belonging to Zoo has lived with its mate for three years. Regular copulations took place on oestrus of the female, but no offspring was produced in any year. The possiblity that the female was at fault had to be excluded because previously she had pregnancy from an other male and the young ones born were reared as well. From the male in question through electrical means ejaculate was obtained under narcosis and it was established that it was very thin, 4-5 degenerate, vibrating sperms could be seen in each field of vision. Forms of degeneration were characteristic of the younger phases of spermiogenesis. Thereafter the animal was treated oncy weekly intramuscularly with a 100 μg dose of D-Phe^6, Trp^7, Leu^8 -GnRH diluted in normal saline solution of 1 ml, using the compressed air injection technique. The male was kept with its mate and they copulated regularly during the treatments. […] Calculating from the time of birth, fertile copulation ensued 40-50 days following the first treatment.

Take `CCNC(=O)[C@@H]1CCCN1C(=O)[C@H](CCC(N)=O)NC(=O)[C@H](CC(C)C)NC(=O)[C@@H](Cc1ccccc1)NC(=O)[C@H](Cc1ccc(O)cc1)NC(=O)[C@H](CO)NC(=O)[C@H](Cc1c[nH]c2ccccc12)NC(=O)[C@H](Cc1c[nH]cn1)NC(=O)[C@@H]1CCC(=O)N1` [D-Phe^6, Gln^8, desGly^10 -GnRH ethylamide] ([pGlu]HWSY[dF]LQP-NHEt): the “motility of ejaculate after deep freeze test” value in assay [1] (4 weeks after first treatment) was “less than 10%”. Further, the “young sperm formations in ejaculate” value in assay [1] (4 weeks after first treatment, 100 μg i.m.) is listed as 40-60%. For the same compound, in assay [1] (60 days after first treatment), the defective sperms entry is listed as “below 30%” and the sperm motility result is listed as “exceeded 60%”. The “motility after deep-freeze test” value in [1] (60 days, ejaculate diluted 1:1) is reported as 45%. Besides, the “density of combined sample” value in the assay on Bengalian tiger (12th day) is 4. Besides, in the assay on Bengalian tiger (12th day, combined sample), the sperm motility stood at 70%. Moreover, in the assay with Bengalian tiger (12th day, 10 μg daily i.m. for 12 days, two ejaculations one hour apart, 0.2 ml before treatment, Gln^8, DesGly^10 -GnRH ethyl-amide), the “sperm volume obtained per ejaculation” value was 1 mL and 0.8 mL. Further, the “motility of remelting sperms” value with Bengalian tiger (after deep freezing) came out at 60%. Moreover, the “doses suitable for artificial fertilization prepared” value with Bengalian tiger (deep frozen samples) is 21. In the assay with infant calves (2 μg three times daily 8 days, 100 μg i.m. on 10th day, 65-day old calves), the “developed Graf-follicles in each ovary” value is given as 5-11. In addition, the “follicles just prior to ovulation” value with infant calves (same treatment) amounted to 50%. Further, the “ova capable to continue meiosis and to be fertilized in vitro” value in [2] is recorded as 85%. The “ovulations in each animal” value in the assay on female lambs was 3-9. Also, the “development of secondary follicles” value in the assay on female wild cats is listed as “all secondary follicles turned into Graf-follicles ovulated”. In the assay with male orang-utan, this compound registered a degenerated sperms of 20%, a density of sperm of 3 and a sperm motility of 35%. Moreover, the “sperm volume obtained altogether” value in the assay on male orang-utan (100 μg twice weekly, two ejaculations) was determined as 3.2 mL.
As to `CC(C)C[C@H](NC(=O)[C@H](Cc1c[nH]c2ccccc12)NC(=O)[C@@H](Cc1ccccc1)NC(=O)[C@H](Cc1ccc(O)cc1)NC(=O)[C@H](CO)NC(=O)[C@H](Cc1c[nH]c2ccccc12)NC(=O)[C@H](Cc1c[nH]cn1)NC(=O)[C@@H]1CCC(=O)N1)C(=O)N1CCC[C@H]1C(=O)NCC(N)=O` [D-Phe^6, Trp^7, Leu^8 -GnRH] ([pGlu]HWSY[dF]WLPG-NH2), in assay [3], the “corpora haemorrhagica on remaining ovary” value is on record as 7-8. Further, the “pregnancy of mate / offspring” value in the assay on Siberian tiger male (100 μg once weekly i.m.) is given as “The female became pregnant, producing three healthy offsprings”. The “time of fertile copulation following the first treatment” value with Siberian tiger male (calculated from time of birth) is 40 to 50 days.
